Values quoted from earlier work in article PMC5669518 (Biochemistry and Biophysics Reports, 2015).

Tested on: NEU2
Details: active form of oseltamivir; ref [16], [17]

With `CCOC(=O)C1=C[C@@H](OC(CC)CC)[C@H](NC(C)=O)[C@@H](N)C1` [oseltamivir] as the compound, how does the “Inhibitory effect on NEU2” value read?
Its value is “does not exhibit the inhibitory effect”.
